The results in this text go back to ChEMBL document CHEMBL4340550, “Structure based designing of triazolopyrimidone-based reversible inhibitors for kinases involved in NSCLC” (Bioorg Med Chem Lett, 2019).

Experiment [1] relates to NCI-H460. The experiment can be described thus: Antiproliferative activity against human H460 cells assessed as cell viability at 40 uM after 48 hrs by MTT assay relative to control. The settings on record: NCI-H460, 48 h, read-out: Activity. Format: functional.
For experiment [2], the system named is NCI-H460. The experiment can be described thus: Antiproliferative activity against human H460 cells assessed as cell viability at 30 uM after 48 hrs by MTT assay relative to control. The note with it: NCI-H460, 48 h, read-out: Activity. The experiment is classed as functional. A general note: Tetrazolium assays rely on reduction of a dye to a coloured formazan, in cell work by metabolically active cells.

The subject of experiment [3] is NCI-H460. The experiment can be described thus: Antiproliferative activity against human H460 cells assessed as cell viability at 20 uM after 48 hrs by MTT assay relative to control. The note with it: NCI-H460, 48 h, read-out: Activity. The experiment is classed as functional.
The test system of experiment [4] is NCI-H460. Put plainly: Antiproliferative activity against human H460 cells assessed as cell viability at 10 uM after 48 hrs by MTT assay relative to control. Format: functional. The settings on record: NCI-H460, 48 h, read-out: Activity.
In experiment [5] the test system is A549. Put plainly: Antiproliferative activity against human A549 cells assessed as cell viability at 40 uM after 48 hrs by MTT assay relative to control. Format: functional. The settings on record: A549, 48 h, read-out: Activity.
The subject of experiment [6] is A549. The experiment can be described thus: Antiproliferative activity against human A549 cells assessed as cell viability at 30 uM after 48 hrs by MTT assay relative to control. The note with it: A549, 48 h, read-out: Activity. Format: functional.
Experiment [7] relates to A549. Put plainly: Antiproliferative activity against human A549 cells assessed as cell viability at 20 uM after 48 hrs by MTT assay relative to control. The note with it: A549, 48 h, read-out: Activity. The experiment is classed as functional.
The test system of experiment [8] is A549. Put plainly: Antiproliferative activity against human A549 cells assessed as cell viability at 10 uM after 48 hrs by MTT assay relative to control. Format: functional. The settings on record: A549, 48 h, read-out: Activity.
Experiment [9] concerns NCI-H460. Put plainly: Antiproliferative activity against human H460 cells assessed as reduction in cell viability after 24 hrs by MTT assay. Format: functional, cell-based. The settings on record: NCI-H460, 24 h.
The test system of experiment [10] is A-431. The experiment can be described thus: Antiproliferative activity against human A431 cells assessed as reduction in cell viability after 24 hrs by MTT assay. Format: functional, cell-based. The note with it: A-431, 24 h.
Experiment [11] concerns the target Hepatocyte growth factor receptor (Homo sapiens, UniProt P08581). Put plainly: Inhibition of human recombinant His-tagged cMET expressed in baculovirus expression system reduction in phosphorylation using tyrosine 6 peptide as substrate after 60 mins FRET based Z'-LYTE assay.
Experiment [12] addresses Epidermal growth factor receptor (Homo sapiens, UniProt P00533, L858R). The experiment can be described thus: Inhibition of human recombinant GST-tagged EGFR L858R mutant expressed in baculovirus expression system reduction in phosphorylation using tyrosine 4 peptide as substrate after 60 mins FRET based Z'-LYTE assay.
The target of experiment [13] is Epidermal growth factor receptor (Homo sapiens, UniProt P00533, L858R/T790M). The experiment can be described thus: Inhibition of human recombinant GST-tagged EGFR L858R/T790M mutant expressed in baculovirus expression system reduction in phosphorylation using tyrosine 4 peptide as substrate after 60 mins FRET based Z'-LYTE assay.
The subject of experiment [14] is A549. The experiment can be described thus: cells. The note with it: Homo sapiens, A549, 24 h.
Description: Antiproliferative activity against human A549 cells assessed as reduction in cell viability after 24 hrs by MTT assay
The test system of experiment [15] is A-431. Put plainly: Antiproliferative activity against human A431 cells assessed as cell viability at 40 uM after 48 hrs by MTT assay relative to control. Format: functional. The settings on record: A-431, 48 h, read-out: Activity.
For experiment [16], the system named is A-431. Put plainly: Antiproliferative activity against human A431 cells assessed as cell viability at 30 uM after 48 hrs by MTT assay relative to control. Format: functional. The note with it: A-431, 48 h, read-out: Activity.
Experiment [17] deals with A-431. Put plainly: Antiproliferative activity against human A431 cells assessed as cell viability at 20 uM after 48 hrs by MTT assay relative to control. The experiment is classed as functional. The settings on record: A-431, 48 h, read-out: Activity.
The subject of experiment [18] is A-431. Put plainly: Antiproliferative activity against human A431 cells assessed as cell viability at 10 uM after 48 hrs by MTT assay relative to control. The experiment is classed as functional. The note with it: A-431, 48 h, read-out: Activity.

Structures are written as SMILES.

Chain of Hepatocyte growth factor receptor (P08581 whole entry): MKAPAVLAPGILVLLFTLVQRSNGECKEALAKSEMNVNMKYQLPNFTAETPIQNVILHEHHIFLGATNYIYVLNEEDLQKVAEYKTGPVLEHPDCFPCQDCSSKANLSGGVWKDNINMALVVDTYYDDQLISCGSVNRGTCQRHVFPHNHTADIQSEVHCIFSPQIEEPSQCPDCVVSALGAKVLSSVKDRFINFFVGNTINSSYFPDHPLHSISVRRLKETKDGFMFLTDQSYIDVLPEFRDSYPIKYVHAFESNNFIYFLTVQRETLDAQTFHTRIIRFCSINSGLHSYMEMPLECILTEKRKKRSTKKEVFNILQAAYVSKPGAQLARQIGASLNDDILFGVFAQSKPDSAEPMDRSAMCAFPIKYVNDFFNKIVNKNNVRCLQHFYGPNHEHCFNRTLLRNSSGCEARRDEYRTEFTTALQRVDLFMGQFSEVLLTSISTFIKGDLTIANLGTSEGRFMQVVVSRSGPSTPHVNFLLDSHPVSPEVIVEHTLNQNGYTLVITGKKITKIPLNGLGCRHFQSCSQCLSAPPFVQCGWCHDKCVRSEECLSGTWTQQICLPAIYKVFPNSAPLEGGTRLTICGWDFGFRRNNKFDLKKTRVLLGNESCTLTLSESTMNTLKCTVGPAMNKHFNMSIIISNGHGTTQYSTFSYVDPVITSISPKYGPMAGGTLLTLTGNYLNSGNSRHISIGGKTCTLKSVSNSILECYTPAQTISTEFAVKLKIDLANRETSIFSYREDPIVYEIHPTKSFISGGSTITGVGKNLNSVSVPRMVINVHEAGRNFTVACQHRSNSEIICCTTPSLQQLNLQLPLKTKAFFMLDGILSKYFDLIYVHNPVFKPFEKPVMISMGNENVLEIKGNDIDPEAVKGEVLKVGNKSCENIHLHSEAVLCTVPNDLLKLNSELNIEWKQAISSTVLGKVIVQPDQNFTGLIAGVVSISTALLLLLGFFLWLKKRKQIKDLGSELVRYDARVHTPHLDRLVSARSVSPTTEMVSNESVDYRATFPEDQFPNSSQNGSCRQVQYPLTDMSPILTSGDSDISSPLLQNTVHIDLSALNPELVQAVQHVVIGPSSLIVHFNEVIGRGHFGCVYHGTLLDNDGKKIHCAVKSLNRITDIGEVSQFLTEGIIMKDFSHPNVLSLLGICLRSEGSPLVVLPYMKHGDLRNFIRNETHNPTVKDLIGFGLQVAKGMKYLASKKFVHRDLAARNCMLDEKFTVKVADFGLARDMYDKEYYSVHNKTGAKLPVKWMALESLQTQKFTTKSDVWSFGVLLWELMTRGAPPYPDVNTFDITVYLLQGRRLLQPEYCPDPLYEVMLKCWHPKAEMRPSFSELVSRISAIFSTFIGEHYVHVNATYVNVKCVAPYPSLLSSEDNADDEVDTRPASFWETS
Chain of Epidermal growth factor receptor (Homo sapiens, UniProt P00533, L858R/T790M) (P00533 25-1210 T790M/L858R limits assumed): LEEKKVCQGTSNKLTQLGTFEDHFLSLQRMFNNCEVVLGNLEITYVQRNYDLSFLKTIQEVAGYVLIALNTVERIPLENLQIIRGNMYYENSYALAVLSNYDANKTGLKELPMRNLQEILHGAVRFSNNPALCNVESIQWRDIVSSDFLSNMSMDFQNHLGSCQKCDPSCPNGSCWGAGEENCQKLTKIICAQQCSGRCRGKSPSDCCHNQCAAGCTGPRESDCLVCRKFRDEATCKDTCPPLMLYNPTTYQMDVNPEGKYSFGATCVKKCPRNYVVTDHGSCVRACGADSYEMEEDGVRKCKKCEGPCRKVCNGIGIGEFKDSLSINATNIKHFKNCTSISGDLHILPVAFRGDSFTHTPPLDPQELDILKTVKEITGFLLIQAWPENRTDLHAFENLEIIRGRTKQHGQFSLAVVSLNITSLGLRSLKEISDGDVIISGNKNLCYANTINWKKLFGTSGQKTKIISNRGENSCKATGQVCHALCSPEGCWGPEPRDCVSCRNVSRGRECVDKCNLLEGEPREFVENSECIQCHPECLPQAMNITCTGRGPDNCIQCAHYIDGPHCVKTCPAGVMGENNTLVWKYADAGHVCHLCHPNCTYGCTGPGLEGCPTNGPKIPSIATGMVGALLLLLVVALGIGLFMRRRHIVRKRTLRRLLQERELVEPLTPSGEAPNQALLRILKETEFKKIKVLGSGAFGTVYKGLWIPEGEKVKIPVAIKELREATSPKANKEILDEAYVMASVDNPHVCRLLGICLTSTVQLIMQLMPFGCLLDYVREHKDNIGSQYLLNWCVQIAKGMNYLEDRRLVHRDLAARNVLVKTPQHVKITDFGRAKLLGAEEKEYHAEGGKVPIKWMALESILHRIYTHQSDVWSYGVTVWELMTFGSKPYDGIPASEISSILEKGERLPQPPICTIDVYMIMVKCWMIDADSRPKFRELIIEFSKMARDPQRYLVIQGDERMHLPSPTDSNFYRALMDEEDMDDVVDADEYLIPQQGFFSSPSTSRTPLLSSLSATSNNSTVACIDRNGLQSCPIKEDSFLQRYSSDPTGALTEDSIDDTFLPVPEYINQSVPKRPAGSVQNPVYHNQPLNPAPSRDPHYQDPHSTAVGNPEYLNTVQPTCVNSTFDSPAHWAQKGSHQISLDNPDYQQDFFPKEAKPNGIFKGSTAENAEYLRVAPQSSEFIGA
Chain of Epidermal growth factor receptor (Homo sapiens, UniProt P00533, L858R) (P00533 25-1210 L858R limits assumed): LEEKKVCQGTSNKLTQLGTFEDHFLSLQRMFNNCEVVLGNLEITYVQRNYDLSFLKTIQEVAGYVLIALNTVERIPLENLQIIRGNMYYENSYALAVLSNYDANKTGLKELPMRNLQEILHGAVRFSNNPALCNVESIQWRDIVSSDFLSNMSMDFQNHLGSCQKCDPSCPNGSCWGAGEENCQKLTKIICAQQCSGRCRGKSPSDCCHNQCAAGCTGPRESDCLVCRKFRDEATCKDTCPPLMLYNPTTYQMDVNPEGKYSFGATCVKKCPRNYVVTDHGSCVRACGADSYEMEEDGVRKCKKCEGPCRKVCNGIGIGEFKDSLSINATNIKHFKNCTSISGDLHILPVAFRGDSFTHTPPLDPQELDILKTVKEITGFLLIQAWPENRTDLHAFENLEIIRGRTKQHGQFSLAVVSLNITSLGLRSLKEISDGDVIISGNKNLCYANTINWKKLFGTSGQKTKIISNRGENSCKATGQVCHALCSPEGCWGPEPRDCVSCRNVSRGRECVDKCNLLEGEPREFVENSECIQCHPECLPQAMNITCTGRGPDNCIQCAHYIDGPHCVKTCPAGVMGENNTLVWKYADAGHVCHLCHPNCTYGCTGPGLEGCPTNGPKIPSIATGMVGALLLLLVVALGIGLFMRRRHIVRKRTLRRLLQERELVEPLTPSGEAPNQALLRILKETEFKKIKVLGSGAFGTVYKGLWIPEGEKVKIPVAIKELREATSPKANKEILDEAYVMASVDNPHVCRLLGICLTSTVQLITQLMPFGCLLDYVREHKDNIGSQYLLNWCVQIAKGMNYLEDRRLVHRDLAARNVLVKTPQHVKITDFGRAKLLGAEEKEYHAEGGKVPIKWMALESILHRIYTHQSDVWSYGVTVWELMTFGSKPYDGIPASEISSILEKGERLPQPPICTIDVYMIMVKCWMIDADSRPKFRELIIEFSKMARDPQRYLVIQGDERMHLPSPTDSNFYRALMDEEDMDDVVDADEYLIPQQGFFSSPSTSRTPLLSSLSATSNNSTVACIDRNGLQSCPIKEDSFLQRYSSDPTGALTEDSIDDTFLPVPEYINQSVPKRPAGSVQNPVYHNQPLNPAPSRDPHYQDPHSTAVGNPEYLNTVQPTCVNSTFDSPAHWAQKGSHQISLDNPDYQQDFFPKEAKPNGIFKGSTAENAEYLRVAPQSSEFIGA

Usually IC50 stands for the midpoint of a concentration-inhibition curve. Consider `Cc1cc(=O)n2nc(SCc3ccc(Cl)cc3Cl)nc2[nH]1`, for which the figures for the viability at 40 µM in the experiment with NCI-H460 [1] and with A549 [5] were 34.9% and 46.8%, respectively. The viability at 30 µM came to 51% with NCI-H460 [2] and 61.2% in the experiment with A549 [6]. Also, the viability at 20 µM came to 65.7% in the experiment on NCI-H460 [3] and 77% in the experiment on A549 [7]. For the same molecule, the viability at 10 µM in the experiment on NCI-H460 [4] came to 83.5%; in the experiment with A549 [8], 88.3%. The IC50 in the experiment on NCI-H460 [9] came to 27200 nM; with A-431 [10], 18200 nM; in experiment [11] it was 42 nM; in experiment [12], 141 nM; in [13], 141 nM; with A549 [14], 34900 nM.

Consider `Cc1cc(=O)n2nc(SCc3cccc([N+](=O)[O-])c3)nc2[nH]1`, for which the IC50 with NCI-H460 [9] was over 80000 nM; in the experiment with A-431 [10] it was over 40000 nM; in experiment [11], 89 nM; in experiment [12] it was 157 nM; in [13], 77 nM; with A549 [14], over 80000 nM.

In the case of `Cc1cc(=O)n2nc(SCc3ccc([N+](=O)[O-])cc3)nc2[nH]1`, the IC50 in the experiment with NCI-H460 [9] was over 80000 nM; in the experiment with A-431 [10], over 40000 nM; in experiment [11], 104 nM; in experiment [12] it was 107 nM; in experiment [13] it was 76 nM; with A549 [14], over 80000 nM.

Turning to `Cc1cc(=O)n2nc(SCc3ccc(F)cc3)nc2[nH]1`, the IC50 in the experiment with NCI-H460 [9] was over 80000 nM; in the experiment on A-431 [10], over 40000 nM; in experiment [11] it was 203 nM; in [12] it was 52 nM; in experiment [13], 56 nM; in the experiment on A549 [14], over 80000 nM.

Take `Cc1cc(=O)n2nc(SCc3ccc(Cl)cc3)nc2[nH]1`: the IC50 in the experiment on NCI-H460 [9] amounted to 56500 nM; in the experiment with A-431 [10] it was 32500 nM; in experiment [11] it was 113 nM; in experiment [12] it was 54 nM; in experiment [13] it was 182 nM; in the experiment on A549 [14], 61400 nM.

For `Cc1cc(=O)n2nc(SCc3ccc(C(C)(C)C)cc3)nc2[nH]1`, the IC50 was 59000 nM in the experiment with NCI-H460 [9], 24400 nM with A-431 [10], 65 nM in experiment [11] and 60500 nM with A549 [14].

In the case of `Cc1cc(=O)n2nc(SCc3cccc(C(F)(F)F)c3)nc2[nH]1`, the IC50 came to 65800 nM in the experiment on NCI-H460 [9]; 21800 nM in the experiment on A-431 [10]; 94 nM in experiment [11]; 81 nM in experiment [12]; 84 nM in [13]; 72000 nM in the experiment with A549 [14].

As to `Cc1cc(=O)n2nc(SCc3ccc(C(C)C)cc3)nc2[nH]1`, the viability at 40 µM amounted to 41.8% in the experiment on NCI-H460 [1], 43.4% with A549 [5] and 17.7% with A-431 [15]. Also, the viability at 30 µM came out at 56% in the experiment with NCI-H460 [2], 65.3% in the experiment with A549 [6] and 38.8% in the experiment with A-431 [16]. Also, the viability at 20 µM came to 71.6% in the experiment with NCI-H460 [3], 79.6% in the experiment on A549 [7] and 50.7% with A-431 [17]. Also, the values for the viability at 10 µM with NCI-H460 [4], with A549 [8] and in the experiment with A-431 [18] were 86.7%, 89.7% and 71.7%, respectively. For the same molecule, the IC50 with NCI-H460 [9] turned out to be 31800 nM; with A-431 [10], 17300 nM; in [11], 50 nM; in [12], 80 nM; in experiment [13], 62 nM; in the experiment with A549 [14] it was 35200 nM.

Consider `Cc1ccc(CSc2nc3[nH]c(C)cc(=O)n3n2)cc1`, for which the viability at 40 µM in the experiment with A-431 [15] turned out to be 32.5%. Further, in the experiment with A-431 [16], the viability at 30 µM was found to be 41.7%. Besides, the viability at 20 µM in the experiment on A-431 [17] came to 62.5%. Further, the viability at 10 µM with A-431 [18] was 75.8%. Also, the IC50 was found to be 49900 nM with NCI-H460 [9]; 15800 nM with A-431 [10]; 79 nM in experiment [11]; 311 nM in experiment [12]; 168 nM in [13]; 50100 nM in the experiment on A549 [14].

In the case of `Cc1cc(O)n2nc(SCc3cccc(Cl)c3)nc2n1`, the IC50 is over 80000 nM in the experiment with NCI-H460 [9]; over 40000 nM with A-431 [10]; 92 nM in experiment [11]; 131 nM in experiment [12]; 59 nM in experiment [13]; over 80000 nM with A549 [14].
